The values that follow are results of earlier work, collected in article PMC4101043 (Antiviral research, 2014).

Where two headings read alike, the source gives them in different places. A value given as a limit tells only on which side of the number the result lay.

In one data set the test system is UGTs. Particulars: stated as known, no reference given.
Another data set has as its system Wild-Type HIV-1 NL4-3. Particulars: MT-4 cells.
For data set [1] the following is noted: dosage and study duration differ.
Setting [2] is: CPE inhibition, ref Okello et al., 2013a.

Regarding `C[C@@H]1CCO[C@H]2Cn3cc(C(=O)NCc4ccc(F)cc4F)c(=O)c(O)c3C(=O)N12` [dolutegravir], the “UGT substrate status / dependence on UGTs for clearance” value (“UGT substrate status / dependence” below) in the data set on UGTs was “substrates and depend on UGTs for clearance”. Further, the concentration for a half-maximal effect (EC50) in the data set with Wild-Type HIV-1 NL4-3 (ref Kobayashi et al., 2011) was 710 pM. Moreover, the NOAEL in data set [1] (adult rats, ref Rhodes et al., 2012) is on record as 50 mg/kg/day.

In the case of `COc1cc2c(cc1Cc1cccc(Cl)c1F)c(=O)c(C(=O)O)cn2[C@H](CO)C(C)C` [elvitegravir], the “UGT substrate status / dependence” value in the data set on UGTs is “substrates and depend on UGTs for clearance”. Further, the EC50 in the data set with Wild-Type HIV-1 NL4-3 (setting [2]) was 820 pM.

For `Cc1nnc(C(=O)NC(C)(C)c2nc(C(=O)NCc3ccc(F)cc3)c(O)c(=O)n2C)o1` [raltegravir], the “UGT substrate status / dependence” value in the data set on UGTs was “substrates and depend on UGTs for clearance”. Also, under “rats, po doses of 40–120 mg/kg, ref Merck, 2007”, the t1/2 is no more than 1.6 h. Further, for the setting “rats, ref Laufer et al., 2009”, the Cl rate is 38.3 mL/min/kg. Also, where the note is “ref Merck, 2007”, the “Oral bioavailability (F)” value is reported as 32%. Besides, in the data set with Wild-Type HIV-1 NL4-3 (setting [2]), the EC50 is 6540 pM. Further, in data set [1] (ref Merck, 2007), the no-observed-adverse-effect level (NOAEL) is on record as 120 mg/kg/day.

One may read the EC50 as the midpoint of the concentration-response curve. For orientation: NOAEL means the highest dose or exposure tested at which no adverse effect was seen.
